Measured values as given in patent publication US11413261B2, “Pharmaceutical composition for treating cancer comprising lactate metal salt” (METIMEDI PHARMACEUTICALS CO., LTD, priority 2014, dated 2022).

What was measured:
[1] = tested on: colorectal cancer cell (HT-29); assay: Tumor volume and morphology in HT-29 implanted animal model; assay type: in vivo, Balb/c mice
Protocol: A colorectal cancer cell (HT-29) cultured in an RPMI1640 medium and then diluted with PBS was subcutaneously implanted into the flank of Balb/c mice. The mice were bred until the colorectal cancer cell grew to about 5 mm. Then, four groups were set up; a control group untreated with calcium lactate for 30 days, an experimental group 1 (peroral, P.O.) administered with 2.5 mM calcium lactate by oral administration, an experimental group 2 (intra tumor, I.T) injected with 2.5 mM calcium lactate around tumor, and an experimental group 3 (subcutaneous, S.C) subcutaneously injected with 25 mM calcium lactate (FIG. 27).
The volumes of colorectal cancer tissues extracted from the mice of the control group or the experimental group 1 set up in Example 10-1 were measured over time and compared with each other (FIG. 30).
The volumes of colorectal cancer tissues extracted from the mice of the control group or the experimental group 2 set up in Example 10-1 were measured over time and compared with each other (FIG. 32).
The tumor morphologies of the mice of the control group or the experimental group 2 set up in Example 10-1 were compared with each other (FIG. 33).
The volumes of colorectal cancer tissues extracted from the mice of the control group or the experimental group 3 set up in Example 10-1 were measured over time and compared with each other (FIG. 34).
The tumor morphologies of the mice of the control group or the experimental group 3 set up in Example 10-1 were compared with each other (FIG. 35).

[2] = tested on: human colorectal cancer cell lines (HT-29 and HCT-116); assay: Colony-forming ability, anticancer drug in combination with calcium lactate (6-well plates); assay type: cell-based; conditions: 2.5 mM calcium lactate alone, vs control
Protocol: Human colorectal cancer cell lines (HT-29 and HCT-116) with the cell number of 1×10^3 cells were seeded into an RPMI1640 medium in each of 6-well plates. After one day, the medium was replaced with fresh medium and the cells were treated with 2.5 mM calcium lactate or 1 μM, 2.5 μM, and 5 μM Imatinib alone or treated with various concentrations (1 μM, 2.5 μM, and 5 μM) of Imatinib in combination with 2.5 mM calcium lactate. Then, the colony-forming abilities of the cells were compared. In this case, human colorectal cancer cell lines (HT-29 and HCT-116) untreated with any drug were used as control groups (FIGS. 38a, 38b, 39a and 39b).
Human colorectal cancer cell lines (HT-29 and HCT-116) with the cell number of 1×10^3 cells were seeded into an RPMI1640 medium in each of 6-well plates. After one day, the medium was replaced with fresh medium and the cells were treated with 2.5 mM calcium lactate or 2.5 μM, 5 μM, and 10 μM 5-FU alone or treated with various concentrations (2.5 μM, 5 μM, and 10 μM) of 5-FU in combination with 2.5 mM calcium lactate. Then, the colony-forming abilities of the cells were compared. In this case, human colorectal cancer cell lines (HT-29 and HCT-116) untreated with any drug were used as control groups (FIGS. 40a, 40 b, 41a and 41b).

[3] = tested on: human breast cancer cell line (MCF-7); assay: as above; assay type: cell-based; conditions: 2.5 mM calcium lactate alone, vs control
Protocol: Human breast cancer cell line (MCF-7) and a human lung cancer cell line (A549) with the cell number of 1×10^3 cells were seeded into an RPMI1640 medium in each of 6-well plates. […] Then, the colony-forming abilities of the cells were compared. In this case, a human breast cancer cell line (MCF-7) and a human lung cancer cell line (A549) untreated with any drug were used as control groups (FIGS. 42a, 42b, 43a and 43b).
Human breast cancer cell line (MCF-7) with the cell number of 1×10^3 cells were seeded into an RPMI1640 medium in each of 6-well plates. After one day, the medium was replaced with fresh medium and the cells were treated with 2.5 mM calcium lactate or 2 μM, 4 μM, and 8 μM Lapatinib alone or treated with various concentrations (2 μM, 4 μM, and 8 μM) of Lapatinib in combination with 2.5 mM calcium lactate. Then, the colony-forming abilities of the cells were compared. In this case, a human breast cancer cell line (MCF-7) untreated with any drug was used as a control group (FIGS. 52a and 52b).

[4] = tested on: human kidney cancer cell line (Caki-1); assay: as above; assay type: cell-based; conditions: 2.5 mM calcium lactate alone, vs control
Protocol: Human kidney cancer cell line (Caki-1) with the cell number of 1×10^3 cells were seeded into an RPMI1640 medium in each of 6-well plates. After one day, the medium was replaced with fresh medium and the cells were treated with 0.3 nM, 0.5 nM, and 1 nM Everolimus alone or treated with various concentrations (0.3 nM, 0.5 nM, and 1 nM) of Everolimus in combination with 2.5 mM calcium lactate. Then, the colony-forming abilities of the cells were compared. In this case, a human kidney cancer cell line (Caki-1) untreated with any drug was used as a control group (FIGS. 53a and 53b).

Question: `CC(O)C(=O)[O-].CC(O)C(=O)[O-].[Ca+2]` (stereo not drawn) [calcium lactate] was tested. Which tumor morphology ([1]; 2.5 mM injected around tumor) did it give?
Answer: decreased in size with decreased angiogenesis

Question: And the tumor morphology ([1]; 25 mM subcutaneously injected)?
Answer: greatly decreased in size and angiogenesis is also reduced

Question: What about the final tumor volume ([1]; 25 mM subcutaneously injected, 30 days (control about 2300)) of the same molecule?
Answer: about 80 mm^3

Question: And the colony-forming ability [2]?
Answer: suppressed

Question: And the colony-forming ability [3]?
Answer: suppressed

Question: And the colony-forming ability [4]?
Answer: suppressed
